From EP1028948B1, “PHENYL-ALKYL-IMIDAZOLES AS H3 RECEPTOR ANTAGONISTS” (SCHERING CORPORATION, priority 1997, dated 1999) come the findings set out here.

For the assay, the target named is T1, H3 receptors (Cavia porcellus, UniProt Q9JI35).
T1 construct: The brain tissue was homogenized using a Polytron in a solution of 50 mM Tris, pH 7.5; from tissue; host or cells: guinea pig brain membranes
Briefly: H3 Receptor Binding Assay. The conditions noted are these: guinea pig brain membranes; 3 nM [3H]R-α-methylhistamine or 3 nM [3H]Nα-methylhistamine; 30°C for 30 min. On the procedure:
The source of the H3 receptors in this experiment was guinea pig brain. The animals weighed 400-600 g. […] The final concentration of tissue in the homogenization buffer was 10% w/v. […] The membranes were frozen and stored at -70°C until needed.
Membranes were then added (400 µg of protein) to the reaction tubes. […] Bound ligand was separated from unbound ligand by filtration, and the amount of radioactive ligand bound to the membranes was quantitated by liquid scintillation spectrometry.

As a reminder, the Ki is a measure of affinity in units of concentration, obtained from inhibition or displacement. A low value points to higher affinity.

T1 sequence (Q9JI35 whole entry): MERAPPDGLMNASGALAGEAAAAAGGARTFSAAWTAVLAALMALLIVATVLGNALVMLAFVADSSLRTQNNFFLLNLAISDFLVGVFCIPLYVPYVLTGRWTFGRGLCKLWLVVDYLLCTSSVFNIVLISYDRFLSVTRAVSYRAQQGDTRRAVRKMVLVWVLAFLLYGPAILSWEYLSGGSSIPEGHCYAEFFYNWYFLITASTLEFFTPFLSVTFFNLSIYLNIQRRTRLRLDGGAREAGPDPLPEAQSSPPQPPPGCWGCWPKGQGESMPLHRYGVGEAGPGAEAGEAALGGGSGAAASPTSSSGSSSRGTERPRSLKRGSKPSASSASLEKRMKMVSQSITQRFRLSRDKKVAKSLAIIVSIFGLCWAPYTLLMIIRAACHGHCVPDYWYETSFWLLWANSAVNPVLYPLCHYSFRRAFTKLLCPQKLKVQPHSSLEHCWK

`O=C(/C=C/c1ccc(Cc2c[nH]cn2)cc1)NCCc1ccc(Cl)cc1` [Compound 3] came in with a Ki of 1 to 19 nM.
